# Results from patent US11173145B2, “Compounds useful as inhibitors of indoleamine 2,3-dioxygenase and/or tryptophan dioxygenase” (Board of Regents, The University of Texas System, priority 2017, dated 2021).
# pIC50: −log10 of the molar value.
# Experiments:
# [1] = biological target: T1, IDO1 (Homo sapiens, UniProt P14902); assay: IDO1 cell-based assay (HeLa cells, IFNgamma-induced, N-formylkynurenine/L-tryptophan by RFMS); conditions: 10 ng/mL IFNgamma, 24 hours
# T1 construct: endogenous in cells; host or cells: HeLa cells (ATCC), IFNgamma-induced
# T1 sequence (P14902 whole entry): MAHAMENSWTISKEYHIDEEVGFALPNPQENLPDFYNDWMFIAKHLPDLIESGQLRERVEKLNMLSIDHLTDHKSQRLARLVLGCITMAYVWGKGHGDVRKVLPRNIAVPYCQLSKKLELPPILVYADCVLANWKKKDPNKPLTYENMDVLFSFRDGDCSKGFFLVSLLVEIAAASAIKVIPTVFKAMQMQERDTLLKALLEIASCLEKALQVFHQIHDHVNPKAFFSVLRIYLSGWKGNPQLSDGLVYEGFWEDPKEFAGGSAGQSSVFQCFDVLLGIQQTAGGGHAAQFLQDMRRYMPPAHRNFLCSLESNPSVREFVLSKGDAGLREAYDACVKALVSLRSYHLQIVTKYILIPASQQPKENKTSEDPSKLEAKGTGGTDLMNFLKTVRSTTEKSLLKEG
# In short: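 N-formylkynurenine and tryptophan peak areas in media measured by RFMS (C18, isocratic, d-Trp standard), giving IC50 values by regression. Source: HeLa cells incubated 24 h with IFNgamma (10 ng/mL) plus test compound at 0.5% DMSO; parallel CellTiter-Glo viability read.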
# [2] = biological target: T2, mouse IDO1 (Mus musculus, UniProt P28776); assay: Mouse IDO1 cell-based assay (PANC02 cells, mouse IFNgamma-induced, N-formylkynurenine/L-tryptophan by RFMS); conditions: 30 ng/mL mouse IFNgamma, 48 hours
# T2 construct: The murine PANC02 pancreatic ductal adenocarcinoma cell line was routinely maintained in DMEM media; endogenous in cells; host or cells: PANC02 murine pancreatic ductal adenocarcinoma cells, induced with mouse IFNgamma
# T2 sequence (P28776 whole entry): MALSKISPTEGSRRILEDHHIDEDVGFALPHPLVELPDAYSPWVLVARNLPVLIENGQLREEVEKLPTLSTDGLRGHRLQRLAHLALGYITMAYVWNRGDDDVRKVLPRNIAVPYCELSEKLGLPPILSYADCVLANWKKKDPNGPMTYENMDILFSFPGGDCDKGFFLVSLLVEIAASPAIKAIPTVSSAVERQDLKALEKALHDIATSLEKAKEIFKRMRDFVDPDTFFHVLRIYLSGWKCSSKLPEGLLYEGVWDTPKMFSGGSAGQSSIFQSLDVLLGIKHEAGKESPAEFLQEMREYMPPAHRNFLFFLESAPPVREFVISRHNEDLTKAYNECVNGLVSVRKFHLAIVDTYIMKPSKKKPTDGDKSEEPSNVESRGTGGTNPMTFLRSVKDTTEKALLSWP
SMILES,pIC50 [1],pIC50 [2]
"CCC(NC(=O)c1ccc(Cl)cc1)[C@H]1[C@@H]2C[C@@H](n3cc4c(F)cccc4n3)C[C@@H]21 (stereo partly drawn) [Compound 209, 4-chloro-N-(1-((1R,3s,5S,6r)-3-(4-fluoro-2H-indazol-2-yl)bicyclo[3.1.0]hexan-6-yl)propyl)benzamide]",> 6.70,> 6.30
"CCC(NC(=O)c1ccc(Cl)cc1)[C@H]1[C@@H]2C[C@@H](NC(=O)c3cn[nH]c3)C[C@@H]21 (stereo partly drawn) [Compound 177, N-((1R,3s,5S,6r)-6-(1-(4-chlorobenzamido)propyl)bicyclo[3.1.0]hexan-3-yl)-1H-pyrazole-4-carboxamide]",5.70 to 6.70,< 5.30
"CCC(NC(=O)c1ccc(Cl)cc1)[C@H]1[C@@H]2C[C@@H](n3cnc(-c4ccccc4)c3)C[C@@H]21 (stereo partly drawn) [Compound 200, 4-chloro-N-(1-((1R,3s,5S,6r)-3-(4-phenyl-1H-imidazol-1-yl)bicyclo[3.1.0]hexan-6-yl)propyl)benzamide]",> 6.70,5.70 to 6.30
"O=C(NC(CO)[C@H]1[C@@H]2C[C@@H](n3cc(C4CC4)nn3)C[C@@H]21)c1ccc(Cl)cc1 (stereo partly drawn) [Compound 168, 4-chloro-N-(1-((1R,3s,5S,6r)-3-(4-cyclopropyl-1H-1,2,3-triazol-1-yl)bicyclo[3.1.0]hexan-6-yl)-2-hydroxyethyl)benzamide]",5.30 to 5.70,< 5.30
"CCC(NC(=O)c1ccc(Cl)cc1)[C@H]1[C@@H]2C[C@@H](n3cc(N4C(=O)c5ccccc5C4=O)nn3)C[C@@H]21 (stereo partly drawn) [Compound 232, 4-chloro-N-(1-((1R,3s,5S,6r)-3-(4-(1,3-dioxoisoindolin-2-yl)-1H-1,2,3-triazol-1-yl)bicyclo[3.1.0]hexan-6-yl)propyl)benzamide]",< 5.30,< 5.30
"COCc1cn([C@@H]2C[C@@H]3[C@H](C2)[C@H]3C(C)NC(=O)c2ccc(C#N)cc2)nn1 (stereo partly drawn) [Compound 242, 4-cyano-N-(1-((1R,3s,5S,6r)-3-(4-(methoxymethyl)-1H-1,2,3-triazol-1-yl)bicyclo[3.1.0]hexan-6-yl)ethyl)benzamide]",5.70 to 6.70,< 5.30
"CCC(NC(=O)c1ccc(Cl)cc1)[C@H]1[C@@H]2C[C@@H](C(C(=O)OC)c3ccccc3)C[C@@H]21 (mixture of isomers) [Compound 202, methyl (S)-2-((1R,3S,5S, 6S)-6-((R)-1-(4-chlorobenzamido)propyl)bicyclo[3.1.0]hexan-3-yl)-2-phenylacetate and methyl (R)-2-((R, 3S, 5S, 6S)-6-((S)-1-(4-chlorobenzamido)propyl)bicyclo[3.1.0]hexan-3-yl)-2-phenylacetate]",5.70 to 6.70,5.70 to 6.30

# Now from value to molecule:
pIC50 [1],pIC50 [2],SMILES
> 6.70,> 6.30,"CCC(NC(=O)c1ccc(Cl)cc1)[C@H]1[C@@H]2C[C@@H](n3c(=O)n(C)c4ccccc43)C[C@@H]21 (stereo partly drawn) [Compound 181, 4-chloro-N-(1-((1R,3s,5S,6r)-3-(3-methyl-2-oxo-2,3-dihydro-1H-benzo[d]imidazol-1-yl)bicyclo[3.1.0]hexan-6-yl)propyl)benzamide]"
> 6.70,5.70 to 6.30,"CCC(NC(=O)c1ccc(Cl)cc1)[C@H]1[C@@H]2C[C@@H](n3ncc4c(F)cccc43)C[C@@H]21 (stereo partly drawn) [Compound 210, 4-chloro-N-(1-((1R,3s,5S,6r)-3-(4-fluoro-1H-indazol-1-yl)bicyclo[3.1.0]hexan-6-yl)propyl)benzamide]"
5.70 to 6.70,5.70 to 6.30,"CCC(NC(=O)c1ccc(Cl)cc1)[C@H]1[C@@H]2C[C@@H](n3c(=O)[nH]c4cc(F)ccc43)C[C@@H]21 (stereo partly drawn) [Compound 192, 4-chloro-N-(1-((1R,3s,5S,6r)-3-(5-fluoro-2-oxo-2,3-dihydro-1H-benzo[d]imidazol-1-yl)bicyclo[3.1.0]hexan-6-yl)propyl)benzamide]"
5.70 to 6.70,5.30 to 5.70,"CCC(NC(=O)c1ccc(Cl)cc1)[C@H]1[C@@H]2C[C@@H](n3ncnc3C3CC3)C[C@@H]21 (stereo partly drawn) [Compound 258, 4-chloro-N-(1-((1R,3s,5S,6r)-3-(5-cyclopropyl-1H-1,2,4-triazol-1-yl)bicyclo[3.1.0]hexan-6-yl)propyl)benzamide]"
> 6.70,5.30 to 5.70,"CCC(NC(=O)c1ccc(Cl)cc1)[C@H]1[C@@H]2C[C@@H](n3ccnc3C)C[C@@H]21 (stereo partly drawn) [Compound 201, 4-chloro-N-(1-((1R,3s,5S,6r)-3-(2-methyl-1H-imidazol-1-yl)bicyclo[3.1.0]hexan-6-yl)propyl)benzamide]"
> 6.70,5.70 to 6.30,"CCC(NC(=O)c1ccc(Cl)cc1)[C@H]1[C@@H]2C[C@@H](NC(=O)c3ccc(F)cn3)C[C@@H]21 (stereo partly drawn) [Compound 144, N-((1R,3s,5S,6r)-6-(1-(4-chlorobenzamido)propyl)bicyclo[3.1.0]hexan-3-yl)-5-fluoropicolinamide]"
5.70 to 6.70,5.30 to 5.70,"CCC(NC(=O)c1ccc(Cl)cc1)[C@@H]1[C@H]2C=C(c3ncnc4cc(F)ccc34)C[C@H]21 (stereo partly drawn) [Compound 255, 4-chloro-N-(1-((1R,5R,6S)-3-(7-fluoroquinazolin-4-yl)bicyclo[3.1.0]hex-2-en-6-yl)propyl)benzamide]"
